Results from patent US20210244704A1, “Cabazitaxel in mCRPC Patients Previously Treated with Docetaxel and Who Failed a Prior androgen signaling targeted inhibitor Agent” (SANOFI MATURE IP, priority 2019, published 2021).

Test system: metastatic castration-resistant prostate cancer (mCRPC) patients previously treated with docetaxel and who failed a prior androgen signaling targeted inhibitor
Assay: Randomized open-label clinical study, cabazitaxel vs abiraterone acetate or enzalutamide: imaging-based PFS, OS, PFS, PSA and tumor response
Type: in vivo, human
Details: for Deaths: at cut-off date; for rPFS, HR: cabazitaxel vs abiraterone or enzalutamide
Excerpt: Imaging-based progression-free survival (rPFS): defined as the time from randomization until the occurrence of one of the following events: objective tumor progression (Response Evaluation Criteria in Solid Tumors, version 1.1), progression of bone lesions (Prostate Cancer Working Group 2) or death due to any cause.
Overall survival (OS): defined as the time from the date of randomization to the date of death due to any cause.
Progression-free survival (PFS) defined as the time from randomization until the occurrence of objective tumor progression (using Response Evaluation Criteria in Solid Tumors, version 1.1), or progression of bone lesions (using Prostate Cancer Working Group 2 criteria), or symptomatic progression (defined as the development of urinary or bowel symptoms related to prostate cancer or requiring a change of anticancer therapy), or pain progression, or death due to any cause.
PSA response: defined as a decline of serum PSA from baseline of ≥50% with confirmation from a second PSA value measured at least 3 weeks apart. Best PSA response was defined using the Prostate Cancer Working Group criteria 2 definition.
Tumor response (TR): was measured using Response Evaluation Criteria in Solid Tumors, version 1.1 in patients with measurable disease.
A clinical study was performed wherein patients received cabazitaxel versus an Androgen Receptor (AR)-targeted agent (abiraterone acetate or enzalutamide) in metastatic castration-resistant prostate cancer (mCRPC) patients previously treated with docetaxel and who failed a prior androgen signaling pathway inhibitor within 12 months.
For patients in Arm A, cabazitaxel 25 mg/m^2 was administered intravenously over 1 hour every 3 weeks along with oral prednisone 10 mg given daily. Primary prophylactic granulocyte-colony stimulating factor (G-CSF) was required at each cycle for all patients in the cabazitaxel arm
For patients in Arm B, abiraterone acetate was administered orally at 1000 mg once daily along with oral prednisone 5 mg given twice daily or enzalutamide was administered orally at 160 mg once daily continuously. Abiraterone acetate was administered to patients who had received enzalutamide prior to study entry. Enzalutamide was administered to patients who received prior abiraterone acetate.
Each patient was treated until imaging-based disease progression, unacceptable toxicity, or patient's refusal of further study treatment. All patients were followed when on study treatment and after completion of study treatment during follow-up period until death, the study cut-off date, or withdrawal of patients' consent whichever came first.
Eligible patients were randomized to receive either cabazitaxel or an AR pathway inhibitor (abiraterone acetate or enzalutamide; dependent on the use of a previous androgen signaling targeted inhibitor) in a 1:1 ratio. Stratification criteria were Eastern Cooperative Oncology Group performance status, a 5-point scale where higher numbers indicate greater disability (0-1 vs. 2), and time to disease progression (≤6 months vs. >6-12 months) and timing (before vs. after docetaxel) with previous alternative AR pathway inhibitors.
Cabazitaxel 25 mg/m^2, was administered intravenously over 1 hour every 3 weeks with oral prednisone 10 mg daily. Premedication included an antihistamine, glucocorticoid (dexamethasone 8 mg or equivalent), and histamine 2 receptor antagonist. Antiemetic prophylaxis was administered at physician's discretion. Primary prophylactic granulocyte-colony stimulating factor was required during each cycle of cabazitaxel. Patients received either abiraterone acetate (1000 mg orally once daily and oral prednisone 5 mg twice daily) or enzalutamide (160 mg orally once daily) continuously. A treatment cycle was 3 weeks in both arms. Abiraterone acetate was given to patients who previously received enzalutamide before study entry. Enzalutamide was given to patients who previously received abiraterone acetate. […]

[1] = cabazitaxel vs androgen signaling targeted inhibitor

SMILES: CO[C@H]1C(=O)[C@]2(C)[C@@H](OC)C[C@H]3OC[C@@]3(OC(C)=O)[C@H]2[C@H](OC(=O)c2ccccc2)[C@]2(O)C[C@H](OC(=O)[C@H](O)[C@@H](NC(=O)OC(C)(C)C)c3ccccc3)C(C)=C1C2(C)C [Cabazitaxel, 4α-acetoxy-2α-benzoyloxy-5β,20-epoxy-1p-hydroxy-7β,10β-dimethoxy-9-oxo-11-taxen-13α-yl (2R,3S)-3-tert-butoxycarbonylamino-2-hydroxy-3-phenylpropionate]
- Deaths: 54.3%
- Deaths (number): 70
- Radiographic progression-free survival, hazard ratio, post hoc (cabazitaxel vs abiraterone acetate): 0.44
- Overall survival, HR in multivariate analysis (cabazitaxel vs abiraterone/enzalutamide, in presence of low hemoglobin, high baseline NLR, high PSA): 0.63
- Imaging-based progression-free survival, hazard ratio [1]: 0.54
- Overall survival, hazard ratio [1]: 0.64
- Progression-free survival, hazard ratio [1]: 0.52
- Radiographic progression-free survival, hazard ratio, post hoc (cabazitaxel vs enzalutamide): 0.57
- Reduction of the risk of death from any cause (compared with abiraterone acetate or enzalutamide, all patients): 36%
- Confirmed PSA reduction ≥50% from baseline (evaluable patients): (35.7) %
- Confirmed PSA reduction ≥50% from baseline (evaluable patients, listed as cabazitaxel): 35.7%
- Radiographic progression-free survival, treatment effect hazard ratio, multivariate (fixed model MV-1): 0.54
- Overall survival, median (from randomization): 13.6 months
- Median OS from time of 1st LET (human, in vivo): 36.4 months
- Median OS from time of 2nd LET (human, in vivo): 24.2 months
- Median OS from time of 3rd LET (human, in vivo): 13.6 months
- Median OS from time of mCRPC diagnosis (human, in vivo): 40.9 months
- Median OS from time of metastatic disease diagnosis (human, in vivo): 54.7 months
- Progression-free survival, median (human, in vivo): 4.4 months
- Treatment discontinuation for disease progression (human, in vivo): 43.7%
- Imaging-based progression-free survival, median (intention-to-treat population): 8.0 months
- Overall response rate (measurable disease): 36.5%
- Tumor response, complete (measurable disease): 0 n
- Tumor response, progressive disease (measurable disease): 15 n
- Confirmed PSA reduction ≥50% from baseline (number of patients, evaluable 115 and 111): 41
- rPFS, HR (patients 70 years or older): 0.58
- rPFS, HR (patients aged <70 years): 0.47
- Radiographic progression-free survival, treatment effect hazard ratio, multivariate (stepwise model MV-2): 0.50
- Radiographic progression-free survival, treatment effect hazard ratio, multivariate (stepwise model MV-3): 0.52
- Reduction in the risk of death (vs abiraterone or enzalutamide, both in patients ≥70 and <70 years): 34%
